How the values were obtained:
[1] = system: BCR-FMS BaF3 cells; experiment: Splenomegaly mouse model, BCR-FMS BaF3 cells; type: in vivo
Description: BaF3 cells are engineered with any of BCR-FMS, BCR-TRK1 or BCR-TRK2 to assess in vivo inhibitory effects of Fms, TrkA or TrkB inhibition, respectively. BaF3 cells are maintained in growth media (RPMI containing 10% FBS, 1% PenStrep, 1% NEAA, and 1% L-Glutamine, supplemented with 5% murine IL-3 and 1 mg/mL G418). Four days prior to start, 2×10^6 cells are inoculated into a T150 vented flask using the growth media and incubated at 37° C. in 5% CO2 for three days. One day prior to start, cells are collected by centrifugation and are suspended in growth media without IL-3. On the day of cell implant, the cells are collected by centrifugation, rinsed 3×20 mL with RPMI, then are suspended in 5.4 mL of media and counted, then adjusted with additional RPMI as needed to give 5×10^7 cells/mL. On day 1, female nu/nu mice at 5-6 weeks of age are injected intravenously with BaF3 cells injected injecting 0.1 mL (5×10^6) cells in the tail vein (mice without cell injected are included as control group). Compound stocks in dimethylsulfoxide are stored at room temperature protected from light. Stocks are diluted prior to dosing, diluting 22 μL of compound stock into 858 μL of diluent (or 50 μL into 1950 μL) to provide vehicle of 1.0% Polysorbate 80, 0.5% hydroxypropyl methyl cellulose, with final dimethylsulfoxide at 2.5% in all dosing suspensions and vehicle control. Dosing suspension is prepared prior to use, mixing by inversion and sonication in a water bath to make a uniform suspension. On days 10-18, mice are treated with vehicle only or the desired level of compound in vehicle, ˜0.2 mL per 25 gm mouse, once a day by oral gavage, or in some instances, twice per day. On day 18, mice are administered a final dose and two hours later a plasma sample is taken. At four hours following the final dose, mice are sacrificed, an additional plasma sample is collected and mouse spleens are removed and weighed. The average spleen weight of vehicle control group mice is compared to the average spleen weight of the test compound mice. Percent spleen growth inhibition is calculated as 100×[(spleen weight vehicle control-spleen weight test compound)/spleen weight vehicle control]. In some instances, the compounds were not tested in all of the assays as indicated by NA in the table below.

[2] = molecular target: T1, Flt-3 kinase (Homo sapiens, UniProt P36888); experiment: Flt-3 kinase biochemical activity assay (AlphaScreen); conditions: 100 μM ATP; read-out: Biochemical Inhibition IC50 Flt3
T1 sequence (P36888 27-993): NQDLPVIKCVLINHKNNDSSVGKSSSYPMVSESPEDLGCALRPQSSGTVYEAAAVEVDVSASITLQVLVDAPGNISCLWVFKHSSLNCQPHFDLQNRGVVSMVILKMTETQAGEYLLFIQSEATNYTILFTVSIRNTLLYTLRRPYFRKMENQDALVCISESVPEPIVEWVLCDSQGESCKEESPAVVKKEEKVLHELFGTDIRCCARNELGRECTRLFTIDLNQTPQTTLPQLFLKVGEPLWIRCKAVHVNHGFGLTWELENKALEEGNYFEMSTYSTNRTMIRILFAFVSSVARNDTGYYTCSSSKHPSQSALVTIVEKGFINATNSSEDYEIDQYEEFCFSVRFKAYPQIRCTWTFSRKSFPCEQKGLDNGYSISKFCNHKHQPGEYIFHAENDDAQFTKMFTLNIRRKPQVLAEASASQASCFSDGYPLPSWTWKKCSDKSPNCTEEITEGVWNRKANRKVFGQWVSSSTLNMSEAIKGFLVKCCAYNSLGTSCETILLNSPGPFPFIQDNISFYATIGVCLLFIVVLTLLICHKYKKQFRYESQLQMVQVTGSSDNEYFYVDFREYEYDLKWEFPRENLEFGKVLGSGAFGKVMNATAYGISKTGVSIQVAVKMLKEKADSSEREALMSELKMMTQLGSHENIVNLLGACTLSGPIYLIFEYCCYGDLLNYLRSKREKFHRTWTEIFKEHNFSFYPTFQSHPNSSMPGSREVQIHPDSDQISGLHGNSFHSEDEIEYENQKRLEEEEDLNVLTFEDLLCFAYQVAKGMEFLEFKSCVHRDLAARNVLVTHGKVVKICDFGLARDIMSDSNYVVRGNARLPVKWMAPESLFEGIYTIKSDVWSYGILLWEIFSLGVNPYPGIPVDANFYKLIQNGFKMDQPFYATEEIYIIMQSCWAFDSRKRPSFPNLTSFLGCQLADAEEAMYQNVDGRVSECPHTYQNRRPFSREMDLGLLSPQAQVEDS
Description: In one assay the biochemical activity IC50 values are determined with respect to inhibition of Flt-3 kinase activity, where inhibition of phosphorylation of a peptide substrate is measured as a function of compound concentration. Compounds to be tested, dissolved in DMSO (1 μL), are added to a white 384-well plate (Costar #3705). Working stocks of Flt-3 kinase (Invitrogen), biotin-(E4Y)10 substrate (Upstate Biotech, Cat#12-440), and ATP (Sigma, Cat#A-3377) are prepared in 25 mM Hepes pH 7.5, 5 mM MgCl2, 5 mM MnCl2, 1 mM DTT, and 0.01% Tween-20. All components are added to the 384-well plate for a final concentration of 1 ng/well Flt-3, 30 nM biotin-(E4Y)10 and 100 μM ATP in a volume of 20 μL. Each sample is at 5% DMSO. The plate is then incubated for 1 hour at room temperature. Just before use, working stocks of donor and acceptor beads from the AlphaScreen PY20 Detection Kit (PerkinElmer, Cat#676601M) are prepared in 25 mM Hepes pH 7.5, pH 7.4, 100 mM EDTA. 0.3% BSA. To stop the reaction, the plate is uncovered in the dark and 5 μL of Donor Beads solution (Streptavidin beads) is added to each well. The plate is incubated at room temperature for 20 minutes. Five microliters of Acceptor Beads solution (PY20 coated beads) are then added to each well. The final concentration of each bead is 10 μg/mL. The plates are incubated at room temperature for 60 minutes. Fluorescence signal is recorded on the Envision reader. Phosphorylated substrate results in binding of the PY20 antibody and association of the donor and acceptor beads such that signal correlates with kinase activity. The signal vs. compound concentration is used to determine the IC50.

[3] = dosed once per day at 10 mg per kg

| Structure (SMILES) | % spleen growth inhibition, Fms [1, 3] [%] | IC50 [2] [µM] | % spleen growth inhibition, Fms ([1]; dosed at 5 mg/kg) [%] |
| --- | --- | --- | --- |
| Cc1cnc2[nH]cc(Cc3cnc(Nc4ccc(F)cc4)nc3)c2c1 [Compound P-3010, (4-Fluoro-phenyl)-[5-(5-methyl-1H-pyrrolo[2,3-b]pyridin-3-ylmethyl)-pyrimidin-2-yl]-amine] | 47 | < 0.1 | – |
| Clc1ccc(Nc2ncc(Cc3c[nH]c4ncc(Cl)cc34)cn2)cc1 [Compound P-3011, (4-Chloro-phenyl)-[5-(5-chloro-1H-pyrrolo[2,3-b]pyridin-3-ylmethyl)-pyrimidin-2-yl]-amine] | – | < 0.01 | – |
| Fc1ccc(Nc2ncc(Cc3c[nH]c4ncc(Cl)cc34)cn2)cc1 [Compound P-3012, [5-(5-Chloro-1H-pyrrolo[2,3-b]pyridin-3-ylmethyl)-pyrimidin-2-yl]-(4-fluoro-phenyl)-amine] | – | < 0.1 | – |
| Fc1nc(NC2CCC(F)(F)CC2)ccc1Cc1c[nH]c2ncc(Cl)cc12 [Compound P-3013, [5-(5-Chloro-1H-pyrrolo[2,3-b]pyridin-3-ylmethyl)-6-fluoro-pyridin-2-yl]-(4,4-difluoro-cyclohexyl)-amine] | 48 | > 1 | – |
| Fc1ccccc1Nc1ncc(Cc2c[nH]c3ncc(Cl)cc23)cn1 [Compound P-3014, [5-(5-Chloro-1H-pyrrolo[2,3-b]pyridin-3-ylmethyl)-pyrimidin-2-yl]-(2-fluoro-phenyl)-amine] | – | < 1 | – |
| Clc1cnc2[nH]cc(Cc3cnc(Nc4ccccc4Cl)nc3)c2c1 [Compound P-3015, (2-Chloro-phenyl)-[5-(5-chloro-1H-pyrrolo[2,3-b]pyridin-3-ylmethyl)-pyrimidin-2-yl]-amine] | – | < 0.1 | – |
| O=C(c1ccc(NC2CCC(F)(F)CC2)nc1F)c1c[nH]c2ncnc(NCC(F)(F)F)c12 [Compound P-4061, [6-[(4,4-difluorocyclohexyl)amino]-2-fluoro-3-pyridyl]-[4-(2,2,2-trifluoroethylamino)-7H-pyrrolo[2,3-d]pyrimidin-5-yl]methanone] | 48 | – | – |
| O=C(c1ccc(NC2CCC(F)(F)CC2)nc1F)c1c[nH]c2ncnc(NC3CC3)c12 [Compound P-4062, [4-(cyclopropylamino)-7H-pyrrolo[2,3-d]pyrimidin-5-yl]-[6-[(4,4-difluorocyclohexyl)amino]-2-fluoro-3-pyridyl]methanone] | 76 | – | – |
| COc1ccc(Nc2ccc(C(=O)c3c[nH]c4ncnc(NCC(F)(F)F)c34)c(F)n2)cn1 [Compound P-4084, [2-fluoro-6-[(6-methoxy-3-pyridyl)amino]-3-pyridyl]-[4-(2,2,2-trifluoroethylamino)-7H-pyrrolo[2,3-d]pyrimidin-5-yl]methanone] | 6.2 | – | – |
| O=C(c1ccc(Nc2ccc(C3CC3)nc2)nc1F)c1c[nH]c2ncnc(NCC(F)(F)F)c12 [Compound P-4090, [6-[(6-cyclopropyl-3-pyridyl)amino]-2-fluoro-3-pyridyl]-[4-(2,2,2-trifluoroethylamino)-7H-pyrrolo[2,3-d]pyrimidin-5-yl]methanone] | – | – | 38 |
| CNc1ncnc2[nH]cc(C(=O)c3ccc(NC4CCCCC4)nc3Cl)c12 [Compound P-4110, [2-chloro-6-(cyclohexylamino)-3-pyridyl]-[4-(methylamino)-7H-pyrrolo[2,3-d]pyrimidin-5-yl]methanone] | 30 | – | – |
| Cc1ccc(Nc2ccc(C(=O)c3c[nH]c4ncnc(NCC(F)(F)F)c34)c(F)n2)cn1 [Compound P-4112, [2-fluoro-6-[(6-methyl-3-pyridyl)amino]-3-pyridyl]-[4-(2,2,2-trifluoroethylamino)-7H-pyrrolo[2,3-d]pyrimidin-5-yl]methanone] | 9.5 | – | – |
| CCc1ccc(Nc2ccc(C(=O)c3c[nH]c4ncnc(NCC(F)(F)F)c34)c(F)n2)cn1 [Compound P-4120, [6-[(6-ethyl-3-pyridyl)amino]-2-fluoro-3-pyridyl]-[4-(2,2,2-trifluoroethylamino)-7H-pyrrolo[2,3-d]pyrimidin-5-yl]methanone] | 37 | – | – |
| CCNc1ncnc2[nH]cc(C(=O)c3ccc(Nc4ccc(CC)nc4)nc3F)c12 [Compound P-4123, [4-(ethylamino)-7H-pyrrolo[2,3-d]pyrimidin-5-yl]-[6-[(6-ethyl-3-pyridyl)amino]-2-fluoro-3-pyridyl]methanone] | – | – | 14 |
| CCc1ccc(Nc2ccc(C(=O)c3c[nH]c4ncnc(NC)c34)c(F)n2)cn1 [Compound P-4124, [6-[(6-ethyl-3-pyridyl)amino]-2-fluoro-3-pyridyl]-[4-(methylamino)-7H-pyrrolo[2,3-d]pyrimidin-5-yl]methanone] | 20 | – | – |

— patent publication US8901118B2, “Compounds and methods for kinase modulation, and indications therefor” (Plexxikon Inc., priority 2010, dated 2014)
